Results published in patent US11497212B2, “Substituted thiophenyl uracils, salts thereof and the use thereof as herbicidal agents” (Syngenta Crop Protection AG, priority 2017, dated 2022).

Key:
Type in all cases: in vivo
[1] = tested on: Abutilon theophrasti; assay: Herbicidal action post-emergence (greenhouse pot trial); conditions: scored visually after about 3 weeks vs untreated controls
Summary of the method: (§1)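 Percent herbicidal efficacy, assessed by eye about 3 weeks after spraying, compares treated with untreated plants. Treatment is a post-emergence spray at the one-leaf stage, using a WP or EC preparation plus 0.5% additive in 600 L/ha of water, at 80 g/ha or lower.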

[2] = tested on: Amaranthus retroflexus; assay: as above; conditions: scored visually after about 3 weeks vs untreated controls
Summary of the method: as §1

[3] = tested on: Digitaria sanguinalis; assay: as above; conditions: application rate 20 g/ha
Summary of the method: as §1

[4] = tested on: Matricaria inodora; assay: as above; conditions: scored visually after about 3 weeks vs untreated controls
Summary of the method: as §1

[5] = tested on: Pharbitis purpurea; assay: as above
Summary of the method: as §1

[6] = tested on: Setaria viridis; assay: as above; conditions: scored visually after about 3 weeks vs untreated controls
Summary of the method: as §1

[7] = tested on: Stellaria media; assay: as above; conditions: scored visually after about 3 weeks vs untreated controls
Summary of the method: as §1

[8] = tested on: Veronica persica; assay: as above
Summary of the method: as §1

[9] = tested on: Viola tricolor; assay: as above
Summary of the method: as §1

[10] = tested on: Oryza sativa; assay: Crop compatibility post-emergence (greenhouse pot trial)
Summary of the method: (§2)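 Visual % rating about 3 weeks post-treatment against untreated plants (100% dead, 0% unaffected). Post-emergence spray of aqueous WP/EC preparations with 0.5% additive at 600 L/ha water, applied at one-leaf stage to greenhouse pot-grown crops in sandy loam.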

[11] = tested on: Triticum aestivum; assay: as above; conditions: application rate 20 g/ha
Summary of the method: as §2

[12] = tested on: Zea mays; assay: as above
Summary of the method: as §2

[13] = tested on: Abutilon theophrasti; assay: Herbicidal action pre-emergence (greenhouse pot trial); conditions: scored after about 3 weeks
Summary of the method: (§3)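 Pots containing sown seeds beneath a soil layer were sprayed with the test formulations at an application rate of 320 g/ha or lower. Percent efficacy was assigned by eye about three weeks afterwards, with dead plants scored as 100%.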

[14] = tested on: Amaranthus retroflexus; assay: as above; conditions: scored after about 3 weeks
Summary of the method: as §3

[15] = tested on: Matricaria inodora; assay: as above; conditions: scored after about 3 weeks
Summary of the method: as §3

[16] = tested on: Glycine max; assay: Crop compatibility pre-emergence (greenhouse pot trial); conditions: application rate 80 g/ha, effect vs untreated controls
Summary of the method: (§4)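 Compounds, formulated as WP or EC plus 0.5% additive, applied to covering soil after sowing at a water rate of 600 L/ha. After roughly 3 weeks under greenhouse conditions, visual % injury to crops rated against untreated plants, 0% meaning like control.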

[17] = tested on: Oryza sativa; assay: as above; conditions: effect vs untreated controls
Summary of the method: as §4

[18] = tested on: Zea mays; assay: as above; conditions: effect vs untreated controls
Summary of the method: as §4

[19] = tested on: Alopecurus myosuroides; assay: Herbicidal action post-emergence (greenhouse pot trial); conditions: application rate 80 g/ha, scored visually after about 3 weeks vs untreated controls
Summary of the method: as §1

[20] = tested on: Echinochloa crus-galli; assay: as above; conditions: scored visually after about 3 weeks vs untreated controls
Summary of the method: as §1

[21] = tested on: Lolium rigidum; assay: as above; conditions: scored visually after about 3 weeks vs untreated controls
Summary of the method: as §1

[22] = tested on: Polygonum convolvulus; assay: as above; conditions: scored visually after about 3 weeks vs untreated controls
Summary of the method: as §1

[23] = tested on: Glycine max; assay: Crop compatibility post-emergence (greenhouse pot trial); conditions: application rate 20 g/ha
Summary of the method: as §2

[24] = tested on: Alopecurus myosuroides; assay: Herbicidal action pre-emergence (greenhouse pot trial); conditions: application rate 320 g/ha, scored after about 3 weeks
Summary of the method: as §3

[25] = tested on: Avena fatua; assay: as above; conditions: application rate 320 g/ha
Summary of the method: as §3

[26] = tested on: Echinochloa crus-galli; assay: as above; conditions: application rate 320 g/ha, scored after about 3 weeks
Summary of the method: as §3

[27] = tested on: Hordeum murinum; assay: as above; conditions: application rate 320 g/ha
Summary of the method: as §3

[28] = tested on: Lolium rigidum; assay: as above
Summary of the method: as §3

[29] = tested on: Pharbitis purpurea; assay: as above; conditions: application rate 320 g/ha
Summary of the method: as §3

[30] = tested on: Setaria viridis; assay: as above; conditions: application rate 320 g/ha, scored after about 3 weeks
Summary of the method: as §3

[31] = tested on: Stellaria media; assay: as above; conditions: application rate 320 g/ha, scored after about 3 weeks
Summary of the method: as §3

[32] = tested on: Veronica persica; assay: as above; conditions: application rate 320 g/ha
Summary of the method: as §3

[33] = tested on: Viola tricolor; assay: as above; conditions: application rate 320 g/ha, scored after about 3 weeks
Summary of the method: as §3

[34] = tested on: Avena fatua; assay: Herbicidal action post-emergence (greenhouse pot trial); conditions: application rate 80 g/ha, scored visually after about 3 weeks vs untreated controls
Summary of the method: as §1

[35] = tested on: Hordeum murinum; assay: as above; conditions: application rate 80 g/ha, scored visually after about 3 weeks vs untreated controls
Summary of the method: as §1

[36] = tested on: Cyperus esculentus; assay: Herbicidal action pre-emergence (greenhouse pot trial); conditions: application rate 320 g/ha
Summary of the method: as §3

Triticum aestivum (Efficacy in %) [11]	Zea mays (Efficacy in %) ([12]; application rate 20 g/ha)	Glycine max (Efficacy in %) [16]	Zea mays (Efficacy in %) ([18]; application rate 80 g/ha)	Glycine max (Efficacy in %) [23]	Compound	Abutilon theophrasti (Efficacy in %) ([1]; application rate 20 g/ha)	Amaranthus retroflexus (Efficacy in %) ([2]; application rate 20 g/ha)	Matricaria inodora (Efficacy in %) ([4]; application rate 20 g/ha)	Setaria viridis (Efficacy in %) ([6]; application rate 20 g/ha)	Stellaria media (Efficacy in %) ([7]; application rate 20 g/ha)	Veronica persica (Efficacy in %) ([8]; application rate 20 g/ha)	Viola tricolor (Efficacy in %) ([9]; application rate 20 g/ha)	Abutilon theophrasti (Efficacy in %) ([13]; application rate 320 g/ha)	Alopecurus myosuroides (Efficacy in %) [24]	Amaranthus retroflexus (Efficacy in %) ([14]; application rate 320 g/ha)	Avena fatua (Efficacy in %) [25]	Echinochloa crus-galli (Efficacy in %) [26]	Hordeum murinum (Efficacy in %) [27]	Matricaria inodora (Efficacy in %) ([15]; application rate 320 g/ha)	Pharbitis purpurea (Efficacy in %) [29]	also measured
20%	20%	10%	0%		CC(Sc1cc(-n2c(=O)cc(C(F)(F)F)n(C)c2=O)c(F)cc1Cl)C(=O)OC1CCCOC1 (stereo not drawn) [I.1-126]	100%	100%	90%	100%	100%	100%	100%									Digitaria sanguinalis (Efficacy in %) [3]: 80%; Pharbitis purpurea (Efficacy in %) ([5]; application rate 20 g/ha): 100%; Oryza sativa (Efficacy in %) ([10]; application rate 20 g/ha): 0%; Abutilon theophrasti (Efficacy in %) ([13]; application rate 80 g/ha): 100%; Amaranthus retroflexus (Efficacy in %) ([14]; application rate 80 g/ha): 100%; Matricaria inodora (Efficacy in %) ([15]; application rate 80 g/ha): 100%; Oryza sativa (Efficacy in %) ([17]; application rate 80 g/ha): 20%
20%		20%		20%	CSCCNC(=O)C(C)Sc1cc(-n2c(=O)cc(C(F)(F)F)n(C)c2=O)c(F)cc1Cl (stereo not drawn) [I.1-181]	100%	100%	100%	100%	100%	100%	100%	100%	100%	100%	100%	100%	90%	100%	100%	Alopecurus myosuroides (Efficacy in %) [19]: 80%; Echinochloa crus-galli (Efficacy in %) ([20]; application rate 20 g/ha): 100%; Lolium rigidum (Efficacy in %) ([21]; application rate 20 g/ha): 80%; Polygonum convolvulus (Efficacy in %) ([22]; application rate 20 g/ha): 100%; Oryza sativa (Efficacy in %) ([10]; application rate 80 g/ha): 10%; Zea mays (Efficacy in %) ([12]; application rate 80 g/ha): 20%; Lolium rigidum (Efficacy in %) ([28]; application rate 80 g/ha): 100%; Setaria viridis (Efficacy in %) [30]: 100%; Stellaria media (Efficacy in %) [31]: 100%; Veronica persica (Efficacy in %) [32]: 100%; Viola tricolor (Efficacy in %) [33]: 100%; Oryza sativa (Efficacy in %) ([17]; application rate 20 g/ha): 0%; Zea mays (Efficacy in %) ([18]; application rate 20 g/ha): 0%
0%	20%	20%	20%	10%	CC(Sc1cc(-n2c(=O)cc(C(F)(F)F)n(C)c2=O)c(F)cc1Cl)C(=O)OCC1CCOC1 (stereo not drawn) [I.1-72]								100%	90%	100%	100%	100%	90%	100%	100%	Abutilon theophrasti (Efficacy in %) ([1]; application rate 80 g/ha): 100%; Amaranthus retroflexus (Efficacy in %) ([2]; application rate 80 g/ha): 100%; Avena fatua (Efficacy in %) [34]: 80%; Echinochloa crus-galli (Efficacy in %) ([20]; application rate 80 g/ha): 100%; Hordeum murinum (Efficacy in %) [35]: 80%; Lolium rigidum (Efficacy in %) ([21]; application rate 80 g/ha): 100%; Matricaria inodora (Efficacy in %) ([4]; application rate 80 g/ha): 100%; Pharbitis purpurea (Efficacy in %) ([5]; application rate 80 g/ha): 100%; Polygonum convolvulus (Efficacy in %) ([22]; application rate 80 g/ha): 100%; Setaria viridis (Efficacy in %) ([6]; application rate 80 g/ha): 100%; Stellaria media (Efficacy in %) ([7]; application rate 80 g/ha): 100%; Veronica persica (Efficacy in %) ([8]; application rate 80 g/ha): 100%; Viola tricolor (Efficacy in %) ([9]; application rate 80 g/ha): 100%; Cyperus esculentus (Efficacy in %) [36]: 80%; Lolium rigidum (Efficacy in %) ([28]; application rate 320 g/ha): 100%; Setaria viridis (Efficacy in %) [30]: 100%; Stellaria media (Efficacy in %) [31]: 100%; Veronica persica (Efficacy in %) [32]: 100%; Viola tricolor (Efficacy in %) [33]: 100%
